We go through one compound from patent publication US20260097083A1, “METHOD FOR PRODUCING PANCREATIC ENDODERM CELLS” (Kyoto University, priority 2022, published 2026).

This test concerns pancreatic endoderm cells derived from human iPS cells. Briefly: Expansion culture of pancreatic endoderm cells with Y-27632. The format is cell-based. Here is the method:
FIG. 4-A A schematic diagram illustrating expansion culture of pancreatic endoderm cells with Y-27632 (50 μM). NKX6.1-positive pancreatic endoderm cells were seeded on a plate and cultured in a culture medium containing Y-27632 (50 μM) for one week. After the elapse of one week, the cells were reseeded, and passage and expansion culture were repeated. PDX1^+/NKX6.1^+ pancreatic endoderm cells were produced from iPS cells (585A1 line) or ES cells (KhES-3 line) on a 6-well plate using the method by Toyoda et al. (Toyoda T, et al. Stem Cell Reports 2017). Briefly, the undifferentiated cells above were seeded at 1×10^6/well on a 6-well plate coated with iMatrix-511 silk. The cells were cultured in RPMI to which an S1 culture medium (1×B-27 Supplement, 100 U/ml penicillin/streptomycin, 100 ng/ml activin A, and CHIR99021 (Day 1: 3 μM, Days 2 and 3: 1 μM, and Day 4: 0 μM)) had been added for 4 days, in an S2 culture medium (improved MEM to which 0.5×B-27 Supplement, 100 U/ml penicillin/streptomycin, and 50 ng/ml KGF/FGF7 had been added) for 5 days, and in an S3 culture medium (improved MEM to which 0.5×B-27 Supplement, 100 U/ml penicillin/streptomycin, 50 ng/ml KGF/FGF7, 0.2 μM LDN-193189, 0.1 μM SANT-1, and 10 nM TTNPB had been added) for 2 days. The cells were detached from the 6-well plate using trypsin, and were reseeded on a 6-well plate coated with iMatrix-511 silk at 1.5×10^6/well using the S3 culture medium again. On the next day, the culture medium was changed to an S4 culture medium (improved MEM to which 0.5×B-27 Supplement, 100 U/ml penicillin/streptomycin, 100 ng/ml KGF/FGF7, 50 ng/ml EGF, 10 mM nicotinamide, and 50 μM Y-27632 had been added), and the cells were cultured for 4 days. (1) After the cells produced in clause 1 above were washed with PBS(−), 1 ml of 0.25% trypsin-EDTA was added thereto, and the cells were incubated at 37° C. and 5% CO2 for 5 minutes. (2) The adherent cells were detached through pipetting and were added to a 50-ml centrifuge tube. (3) 4 ml of DMEM (Dulbecco's Modified Eagle Medium)/10% FBS/PS (penicillin-streptomycin) was added to the centrifuge tube. (4) The resulting mixture was centrifuged at 400 G for 3 minutes, and the supernatant was removed. (5) The cells were suspended in improved MEM (containing 10 μM Y-27632, 0.5×B-27 Supplement, and 100 U/ml penicillin/streptomycin), and were counted. (6) When the cells were seeded on a 6-well plate, an amount of the suspension necessary to provide 1×10^6 cells/well was collected and was centrifuged at 400 G for 3 minutes (2×10^5 cells/well for a 24-well plate). (7) After the supernatant was removed, the cells were re-suspended in improved MEM (containing 100 ng/ml KGF, 50 ng/ml EGF, 10 mM nicotinamide, 50 μM Y-27632, 0.5×B-27 Supplement, and 100 U/ml penicillin/streptomycin), the suspension was adjusted to correspond to 2 ml/well, and then the cells were seeded. A 6-well plate to which the cells were to be seeded had been coated in advance by adding a solution formed by mixing 10 μl of iMatrix-511 silk and 1.5 ml of PBS(−) to each well 1 hour before seeding, and incubating the plate at 37° C. and 5% CO2 for 1 hour. (8) On the next day (Day 1), the cells were washed with improved MEM, and then the culture medium was changed to improved MEM (5 ml/well) containing 100 ng/ml KGF, 50 ng/ml EGF, 10 mM nicotinamide, 50 μM Y-27632, 0.5×B-27 Supplement, and 100 U/ml penicillin/streptomycin. (9) The cells were washed with improved MEM 3 days after that (on Day 4), and then the culture medium was changed to the same culture medium as that in the step (7) (5 ml/well). (10) The steps (1) to (7) above were conducted 3 days after that (on Day 7), and the next passage (expansion culture) was conducted. Expansion culture and passage culture were repeated by repeating the steps (8), (9), and (10) from the next day. One round of the passage (expansion culture) corresponded to 7 days (operations above). FIGS. 4-A show the outline of this procedure. […]

The mark [1] stands for this setting: 50 μM, flow cytometry, FIG. 4-E.
[2] abbreviates: 50 μM, immunostaining after expansion culture, FIG. 4-D.

As to `C[C@@H](N)[C@H]1CC[C@H](C(=O)Nc2ccncc2)CC1` [Y-27632], under “50 μM, during expansion culture, FIG. 4-F”, the “proliferative capacity of the pancreatic endoderm cells (Ki67-positive ratio)” value is on record as “maintained”. Moreover, under setting [1], the Ki67-positive ratio result is reported as “kept” and the “ratio of the pancreatic endoderm cells” value is on record as “kept”. Further, under setting [2], the “expression of Ki67” value is “maintained”; the “expression of PDX1 and NKX6.1” value was “maintained”. The “total number of cells increased by a factor of” value (Y-27632 50 μM, 60 days, FIG. 4-B) is given as ≥ 1×10^5. The “number of PDX1+/NKX6.1+ pancreatic endoderm cells increased by a factor of” value (Y-27632 50 μM, 60 days, FIG. 4-C) was ≥ 1×10^5. Further, where the note is “culture medium for expansion culture with Y-27632”, the “NKX6.1-positive ratio on repeated expansion culture” value was “tended to gradually decrease”.
